# Reference: US20150231167A1, “TREATMENT OF HEMATOLOGICAL NEOPLASMS” (THOMAS JEFFERSON UNIVERSITY, priority 2012, published 2015)
# Legend:
# Stat5a = molecular target: T1, Stat5a (Homo sapiens, UniProt P42229); experiment: Stat5a dimerization, co-immunoprecipitation of FLAG- and MYC-tagged Stat5a in PC-3 cells; assay type: cell-based; conditions: pre-treated 2 h, hPrl 10 nM 30 minutes
# T1 construct: expressed in transfected cells; host or cells: PC-3
# T1 sequence (P42229 1-794): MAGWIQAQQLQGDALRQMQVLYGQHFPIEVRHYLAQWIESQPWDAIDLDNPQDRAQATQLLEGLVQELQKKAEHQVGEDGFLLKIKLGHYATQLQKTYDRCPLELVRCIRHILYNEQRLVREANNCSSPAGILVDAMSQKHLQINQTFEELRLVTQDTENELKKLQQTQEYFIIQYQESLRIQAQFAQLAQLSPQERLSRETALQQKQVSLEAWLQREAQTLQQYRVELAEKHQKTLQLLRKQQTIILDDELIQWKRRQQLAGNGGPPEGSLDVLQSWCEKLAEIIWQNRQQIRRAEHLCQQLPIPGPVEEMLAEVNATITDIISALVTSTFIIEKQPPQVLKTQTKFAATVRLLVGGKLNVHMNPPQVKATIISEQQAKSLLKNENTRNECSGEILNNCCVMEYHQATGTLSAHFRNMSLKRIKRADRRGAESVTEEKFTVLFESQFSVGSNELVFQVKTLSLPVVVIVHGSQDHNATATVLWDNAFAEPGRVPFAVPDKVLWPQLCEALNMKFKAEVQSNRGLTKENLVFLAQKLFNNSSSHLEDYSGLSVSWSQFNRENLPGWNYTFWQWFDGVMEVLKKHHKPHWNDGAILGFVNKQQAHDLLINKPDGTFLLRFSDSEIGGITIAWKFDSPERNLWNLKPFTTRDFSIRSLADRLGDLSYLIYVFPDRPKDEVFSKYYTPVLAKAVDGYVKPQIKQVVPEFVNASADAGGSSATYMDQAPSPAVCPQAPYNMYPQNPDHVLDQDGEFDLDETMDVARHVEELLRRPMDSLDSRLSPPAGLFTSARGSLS
# Procedure: FLAG-tagged Stat5a and MYC-tagged Stat5a were generated as follows by standard molecular biology cloning techniques. Plasmid pCMV3-FLAG-Stat5a, pCMV3-MYC-Stat5a and pPr1R were co-transfected using FuGENE6 (Roche) into PC-3 cells (2 μg of each plasmid per 1×10^7 cells). The cells were starved for 20 hours, pre-treated with N^6-benzyladenosine for 2 h, then stimulated with hPrl (10 nM) in RPMI 1640 without serum for 30 minutes. The cell lysates were immunoprecipitated with 25 μl anti-FLAG M2 […] affinity gel (2 μg/ml, Sigma), anti-MYC pAb (1 μg/ml, Upstate) or normal rabbit serum (NRS). The primary antibodies were used in the immunoblottings at the following concentrations: anti-FLAG pAb (1:1000; Stratagene), anti-MYC mAb (1:1000; Sigma), anti-Stat5a/b mAb (1:250) (Transduction Laboratories) detected by horseradish peroxidase-conjugated secondary antibodies.
# Lanes 1, 2, 4, 6 and 8 represent cells stimulated with human prolactin (Prl) for 30 minutes which induces dimerization of Stat5. Two hours prior to Prl-stimulation, the cells had been treated with DMSO (lanes 1-4), the control compound C5 (lanes 5 and 6) or N^6-benzyladenosine (lanes 7 and 8) to test whether the Stat5a/b-inhibitor compound, N6BA, would be able to inhibit dimerization of Stat5. […] It should be noted the drug effect in this study was not due to cell apoptosis induction, as the treatment time was only 2 hours.
# Stat5a/b [1] = experiment: Western blot of Stat5a/b phosphorylation in K562 cells; assay type: cell-based, human
# Procedure: (§1) Exponentially growing K562 cells were treated with 5 μM N6BAP or pimozide for 3 h after which the cells were harvested. Pimozide is a Stat5 inhibitor in leukemia cells (Nelson et al., Blood 117:3421-3429, 2011). Cell pellets were solubilized in lysis buffer [10 mM Tris-HCl (pH 7.6), 5 mM EDTA, 50 mM sodium chloride, 30 mM sodium pyrophosphate, 50 mM sodium fluoride, 1 mM sodium orthovanadate, 1% Triton X-100, 1 mM phenylmethylsulfonyl fluoride, 5 μg/ml aprotinin, 1 μg/ml pepstatin A, and 2 μg/ml leupeptin], rotated end-over-end at 4° C. for 60 min, and insoluble material was pelleted at 12,000×g for 30 min at 4° C. The protein concentrations of clarified cell lysates were determined by simplified Bradford method (Bio-Rad Laboratories, Hercules, Calif.). Western blotting of the lysates was carried out using, as primary antibodies, the following antibodies at the following concentrations: anti-phosphotyrosine-Stat5a/b (Y694/Y699) mAb (1 μg/ml, Advantex BioReagents, Conroe, Tex.), anti-Stat5ab mAb (1:250; BD Biosciences, San Jose, Calif.), anti-human Abl mAb (Calbiochem) or anti-phosphotyrosine mAb (Millipore).
# (§2) Exponentially growing K562 cells were treated with N6BA for 3 h or 6 h after which the cells were harvested. […] The protein concentrations of clarified cell lysates were determined by simplified Bradford method (Bio-Rad Laboratories, Hercules, Calif.). […]
# K562 cells = experiment: K562 cell viability, MTS metabolic activity assay; assay type: cell-based, human; conditions: 72 h at 3.1, 6.3, 12.5, 25 and 50 μM
# Procedure: Exponentially growing K562 cells were treated with N6BAP or the control compound C5 for 72 h at 3.1, 6.3, 12.5, 25 and 50 μM indicated concentrations. The cell viability was assessed by MTS ([…]) metabolic activity assay (CellTiter 96® AQueous Assay kit).
# Exponentially growing K562 leukemia cells were treated with N6BA or the control compound C5 for 72 h at 3.1, 6.3, 12.5, 25 and 50 μM concentrations. The cell viability was assessed by MTS ([…]) metabolic activity assay (CellTiter 96® AQueous Assay kit).
# Stat5a/b [2] = experiment: Western blot of Stat5a/b phosphorylation in parental KCL22 cells (KCL22S); assay type: cell-based, human; conditions: various concentrations, 6 h or 16 h
# Procedure: (§3) Exponentially growing KCL22 and KCL22R cells were treated with N6BAP at various concentrations for 6 h or 16 h after which the cells were harvested. Cell pellets were solubilized in lysis buffer [10 mM Tris-HCl (pH 7.6), 5 mM EDTA, 50 mM sodium chloride, 30 mM sodium pyrophosphate, 50 mM sodium fluoride, 1 mM sodium orthovanadate, 1% Triton X-100, 1 mM phenylmethylsulfonyl fluoride, 5 μg/ml aprotinin, 1 μg/ml pepstatin A, and 2 μg/ml leupeptin], rotated end-over-end at 4° C. for 60 min, and insoluble material was pelleted at 12,000×g for 30 min at 4° C. The protein concentrations of clarified cell lysates were determined by simplified Bradford method (Bio-Rad Laboratories, Hercules, Calif.). Western blotting of the lysates was carried out using, as primary antibodies, the following antibodies at the following concentrations: anti-phosphotyrosine-Stat5a/b (Y694/Y699) mAb (1 μg/ml, Advantex BioReagents, Conroe, Tex.), anti-Stat5ab mAb (1:250; BD Biosciences, San Jose, Calif.) or anti-actin pAb (Sigma). Anti-actin was included as a control.
# as §2
# Stat5a/b [3] = experiment: Western blot of Stat5a/b phosphorylation in imatinib-resistant KCL22 cells (KCL22R); assay type: cell-based, human; conditions: various concentrations, 6 h or 16 h
# Procedure: as §3, §2
# Stat5 = Stat5 transcriptional activity, beta-casein promoter luciferase reporter gene assay in PC-3 cells; assay type: cell-based, human; conditions: pretreated 1 hour, 10 nM hPrl for 16 hours, firefly/Renilla luciferase
# Procedure: Cells of the human prostate cell line PC-3 were plated into 96-well plate at the density of 2×10^5 per well. After 24 hours of plating, cells were transiently co-transfected using FuGENE6 (Roche) with 0.25 μg of each of pStat5a or pStat5b, pPr1R (prolactin receptor) plasmids, 0.5 μg of pBeta-casein-luc and 0.025 μg of pRL-TK (Renilla luciferase plasmids as an internal control. After another 24 hours of transfection, the cells were starved in serum-free medium for 8 hours, pretreated with N^6-benzyladenosine (“N6BA”), or the control compound C5, for 1 hour, and then stimulated with 10 nM human prolactin (hPrl) in the serum-free medium for additional 16 hours. The lysates were assayed for firefly and Renilla luciferase activities using the Dual-Luciferase reporter assay system (Promega). Three independent experiments were carried out in triplicate. The firefly luciferase activity was normalized to the Renilla luciferase activity of the same sample, and the mean was calculated from the parallels. From the mean values of each independent run, the overall mean and its standard deviation (S.D.) were calculated.
# BCR-ABL = molecular target: T2, BCR-ABL (Homo sapiens, UniProt P00519); experiment: Western blot of BCR-ABL phosphorylation and protein levels in K562 cells; assay type: cell-based; conditions: 5 μM, 3 h
# T2 construct: endogenous in cells; host or cells: K562; the other entry of the earlier key: BCR (P11274, Breakpoint cluster region protein)
# Procedure: as §1
# K562 parent cell line = experiment: Growth of K562 parent cell line, trypan blue viable cell count; assay type: cell-based, human; conditions: 5 μM; 24, 48, 72 and 96 hours
# Procedure: (§4) The K562 parent cell line and an imatinib-resistant K562 line were cultured in the presence of culture medium without any compounds (Ctrl), DMSO (0.1%), the control compound C5 (5 μM) or N6BAP at 5 μM concentration. The cells were harvested at 24, 48, 72 and 96 hours, trypan blue stained and the numbers of viable cells were counted for each time-point.
# [4] = tested on: imatinib-resistant K562 line; experiment: Growth of imatinib-resistant K562 line, trypan blue viable cell count; assay type: cell-based, human; conditions: 5 μM; 24, 48, 72 and 96 hours
# Procedure: as §4
# KCL22 = experiment: Growth of KCL22 parent cell line, trypan blue viable cell count; assay type: cell-based, human; conditions: 5 μM; 24, 48, 72 and 96 hours
# Procedure: (§5) KKCL22 and BV173 parent cell lines, and imatinib-resistant counterpart cell lines, were cultured in the presence culture medium without any compounds (Ctrl), DMSO (0.1%), the control compound C5 (5 μM) or N6BAP at 5 μM concentration. The imatinib-resistant lines are characterizes by the bcr-abl T315I mutation, which provides imatinib resistance. The cells were harvested at 24, 48, 72 and 96 hours, trypan blue stained and the numbers of viable cells were counted for each time-point.
# KCL22 T315I = experiment: Growth of imatinib-resistant KCL22 T315I line, trypan blue viable cell count; assay type: cell-based, human; conditions: 5 μM; 24, 48, 72 and 96 hours
# Procedure: as §5
# BV173 = experiment: Growth of BV173 parent cell line, trypan blue viable cell count; assay type: cell-based, human; conditions: 5 μM; 24, 48, 72 and 96 hours
# Procedure: as §5
# BV173 T315I = experiment: Growth of imatinib-resistant BV173 T315I line, trypan blue viable cell count; assay type: cell-based, human; conditions: 5 μM; 24, 48, 72 and 96 hours
# Procedure: as §5
# [5] = tested on: BCR-ABL-driven human leukemic cell lines; experiment: Cell cycle progression analysis (data not shown); assay type: cell-based
# T2 sequence (P00519 with tags, fused parts or gaps): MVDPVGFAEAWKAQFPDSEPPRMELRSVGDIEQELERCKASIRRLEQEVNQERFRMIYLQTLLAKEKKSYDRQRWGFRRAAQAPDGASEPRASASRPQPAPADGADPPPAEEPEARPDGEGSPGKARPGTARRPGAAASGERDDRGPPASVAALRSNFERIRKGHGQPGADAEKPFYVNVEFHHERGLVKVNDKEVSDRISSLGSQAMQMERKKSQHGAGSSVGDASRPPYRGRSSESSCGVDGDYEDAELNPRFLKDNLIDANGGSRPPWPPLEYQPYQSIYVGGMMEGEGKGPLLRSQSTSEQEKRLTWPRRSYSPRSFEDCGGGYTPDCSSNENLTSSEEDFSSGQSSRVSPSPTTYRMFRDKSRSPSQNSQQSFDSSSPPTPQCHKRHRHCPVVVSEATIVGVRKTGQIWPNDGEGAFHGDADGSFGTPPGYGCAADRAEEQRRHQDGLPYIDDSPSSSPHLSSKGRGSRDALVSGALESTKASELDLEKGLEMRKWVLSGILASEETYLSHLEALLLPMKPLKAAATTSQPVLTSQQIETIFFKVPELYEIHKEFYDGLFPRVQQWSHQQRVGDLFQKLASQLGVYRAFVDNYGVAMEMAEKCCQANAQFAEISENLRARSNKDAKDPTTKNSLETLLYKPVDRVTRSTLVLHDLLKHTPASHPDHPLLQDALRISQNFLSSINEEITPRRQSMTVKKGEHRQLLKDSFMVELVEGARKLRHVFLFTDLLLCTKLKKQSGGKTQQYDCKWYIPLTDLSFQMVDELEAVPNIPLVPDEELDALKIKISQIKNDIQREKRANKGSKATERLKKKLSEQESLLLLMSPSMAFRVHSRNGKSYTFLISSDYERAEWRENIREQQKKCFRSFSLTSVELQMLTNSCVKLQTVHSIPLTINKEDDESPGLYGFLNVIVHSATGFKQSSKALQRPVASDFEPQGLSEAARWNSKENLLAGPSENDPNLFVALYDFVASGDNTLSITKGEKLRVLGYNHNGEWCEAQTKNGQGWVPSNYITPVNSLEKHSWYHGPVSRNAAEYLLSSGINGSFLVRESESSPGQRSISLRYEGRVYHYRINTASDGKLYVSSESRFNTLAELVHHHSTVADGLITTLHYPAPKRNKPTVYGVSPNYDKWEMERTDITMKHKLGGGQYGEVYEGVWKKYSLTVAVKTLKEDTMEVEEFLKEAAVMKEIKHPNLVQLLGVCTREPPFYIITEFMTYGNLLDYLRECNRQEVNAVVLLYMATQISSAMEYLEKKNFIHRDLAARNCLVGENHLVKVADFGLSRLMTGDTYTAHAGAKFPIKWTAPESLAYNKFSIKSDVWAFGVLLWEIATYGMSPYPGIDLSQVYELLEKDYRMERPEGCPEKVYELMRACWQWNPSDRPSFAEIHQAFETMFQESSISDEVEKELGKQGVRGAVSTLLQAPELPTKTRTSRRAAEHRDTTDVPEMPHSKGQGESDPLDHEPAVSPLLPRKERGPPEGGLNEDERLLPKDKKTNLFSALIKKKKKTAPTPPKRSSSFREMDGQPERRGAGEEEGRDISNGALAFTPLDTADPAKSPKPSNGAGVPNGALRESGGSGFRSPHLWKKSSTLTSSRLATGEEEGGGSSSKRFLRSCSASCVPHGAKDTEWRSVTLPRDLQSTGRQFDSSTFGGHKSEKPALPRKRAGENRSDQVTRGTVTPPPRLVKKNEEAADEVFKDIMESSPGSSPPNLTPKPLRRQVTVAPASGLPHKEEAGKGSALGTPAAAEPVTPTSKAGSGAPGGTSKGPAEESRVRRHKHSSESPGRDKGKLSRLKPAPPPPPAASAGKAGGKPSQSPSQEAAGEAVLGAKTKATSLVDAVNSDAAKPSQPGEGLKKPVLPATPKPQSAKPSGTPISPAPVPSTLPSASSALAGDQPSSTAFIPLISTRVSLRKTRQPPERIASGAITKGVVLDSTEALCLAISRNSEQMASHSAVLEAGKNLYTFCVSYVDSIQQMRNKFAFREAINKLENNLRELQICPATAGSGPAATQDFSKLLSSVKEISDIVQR
SMILES,Stat5a dimerization (Stat5a),"phosphorylation of Stat5 (Stat5a/b [1]; indicated concentrations, 3 h or 6 h)",number of viable K562 cells (MTS) (K562 cells),phosphorylation of Stat5 (Stat5a/b [2]),phosphorylation of Stat5 (Stat5a/b [3]),transcriptional activity of Stat5 (Stat5),"phosphorylation of Stat5 (Stat5a/b [1]; 5 μM, 3 h, Western blot anti-pYStat5)",BCR-ABL protein levels (BCR-ABL),phosphorylation of BCR-ABL (BCR-ABL; anti-phosphotyrosine mAb),growth of the parental K562 line (K562 parent cell line),growth of the imatinib-resistant K562 cell line [4],growth of parental cell line KCL22 (KCL22),growth of imatinib-resistant KCL22 T315I (KCL22 T315I),growth of parental cell line BV173 (BV173),growth of imatinib-resistant BV173 T315I (BV173 T315I),apoptotic death (cell cycle progression analysis) [5]
"Nc1nc(SCc2cccnc2)[nH]c(=O)c1NC(=O)c1ccco1 [C5, reference compound]",did not inhibit dimerization of Stat5a,,,,,,,,,,,,,,,
"OC[C@H]1O[C@@H](n2cnc3c(NCc4ccccc4)ncnc32)[C@H](O)[C@@H]1O [N6BA, N^6-benzyladenosine]",effectively inhibited Stat5a dimerization,inhibits phosphorylation of Stat5,decreased the number of K562 cells,inhibits phosphorylation of Stat5,inhibits phosphorylation of Stat5,inhibits transcriptional activity of Stat5,,,,,,,,,,
"O=P(O)(O)OC[C@H]1O[C@@H](n2cnc3c(NCc4ccccc4)ncnc32)[C@H](O)[C@@H]1O [N6BAP, N^6-benzyladenosine-5′-monophosphate]",,,reduces the number of viable K562 human leukemia cells,blocks phosphorylation of Stat5,blocks phosphorylation of Stat5,,blocks phosphorylation of Stat5,did not affect,did not affect phosphorylation of BCR-ABL,blocked not only the growth of the parental K562 line,blocked the growth of the imatinib-resistant cell line,blocked not only the growth of the parental cell lines,blocked the growth of the corresponding imatinib-resistant cell lines,blocked not only the growth of the parental cell lines,blocked the growth of the corresponding imatinib-resistant cell lines,induced apoptotic death
